# Assay results as given in PubChem BioAssay (NCI).
#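 Following 48 hours of exposure in 96-well plates, responses at five concentrations were used to interpolate endpoints linearly. At the TGI there is no net growth.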
# Assays:
# Assay in all cases: NCI tumour cell line growth inhibition, 48 h
# 786-0 renal = tested on: 786-0 renal
# A498 renal = tested on: A498 renal
# A549 NSCLC = tested on: A549 NSCLC
# ACHN renal = tested on: ACHN renal
# BT-549 breast = tested on: BT-549 breast
# CAKI-1 renal = tested on: CAKI-1 renal
# CCRF-CEM leukemia = tested on: CCRF-CEM leukemia
# COLO 205 colon = tested on: COLO 205 colon
# DU-145 prostate = tested on: DU-145 prostate
# EKVX NSCLC = tested on: EKVX NSCLC
# HCC-2998 colon = tested on: HCC-2998 colon
# HCT-116 colon = tested on: HCT-116 colon
# HCT-15 colon = tested on: HCT-15 colon
# HL-60(TB) leukemia = tested on: HL-60(TB) leukemia
# HOP-62 NSCLC = tested on: HOP-62 NSCLC
# HOP-92 NSCLC = tested on: HOP-92 NSCLC
# HS 578T breast = tested on: HS 578T breast
# HT29 colon = tested on: HT29 colon
# IGROV1 ovarian = tested on: IGROV1 ovarian
# K-562 leukemia = tested on: K-562 leukemia
# KM12 colon = tested on: KM12 colon
# LOX IMVI melanoma = tested on: LOX IMVI melanoma
# M14 melanoma = tested on: M14 melanoma
# MALME-3M melanoma = tested on: MALME-3M melanoma
# MCF7 breast = tested on: MCF7 breast
# MDA-MB-231 breast = tested on: MDA-MB-231 breast
# MDA-MB-435 = tested on: MDA-MB-435
# MDA-N = tested on: MDA-N
# MOLT-4 leukemia = tested on: MOLT-4 leukemia
# NCI-H226 lung = tested on: NCI-H226 lung
# NCI-H23 lung = tested on: NCI-H23 lung
# NCI-H460 lung = tested on: NCI-H460 lung
# NCI-H522 lung = tested on: NCI-H522 lung
# NCI/ADR-RES ovarian = tested on: NCI/ADR-RES ovarian
# OVCAR-3 ovarian = tested on: OVCAR-3 ovarian
# OVCAR-4 ovarian = tested on: OVCAR-4 ovarian
# OVCAR-5 ovarian = tested on: OVCAR-5 ovarian
# OVCAR-8 ovarian = tested on: OVCAR-8 ovarian
# PC-3 prostate = tested on: PC-3 prostate
# RPMI-8226 leukemia = tested on: RPMI-8226 leukemia
# RXF 393 renal = tested on: RXF 393 renal
# SF-268 CNS = tested on: SF-268 CNS
# SF-295 CNS = tested on: SF-295 CNS
# SF-539 CNS = tested on: SF-539 CNS
# SK-MEL-2 melanoma = tested on: SK-MEL-2 melanoma
# SK-MEL-28 melanoma = tested on: SK-MEL-28 melanoma
# SK-MEL-5 melanoma = tested on: SK-MEL-5 melanoma
# SK-OV-3 ovarian = tested on: SK-OV-3 ovarian
# SN12C renal = tested on: SN12C renal
# SNB-19 CNS = tested on: SNB-19 CNS
# SNB-75 CNS = tested on: SNB-75 CNS
# SR leukemia = tested on: SR leukemia
# SW-620 colon = tested on: SW-620 colon
# T-47D breast = tested on: T-47D breast
# TK-10 renal = tested on: TK-10 renal
# U251 CNS = tested on: U251 CNS
# UACC-257 melanoma = tested on: UACC-257 melanoma
# UACC-62 melanoma = tested on: UACC-62 melanoma
# UO-31 renal = tested on: UO-31 renal
structure (smiles),measurement,setting,value
COC12COC(=O)C1C(c1ccc3c(c1)OCO3)c1cc3c(cc1O2)OCO3 (stereo not drawn),TGI,786-0 renal,> 96.8 µM
same,TGI,A498 renal,> 91.8 µM
same,TGI,A549 NSCLC,> 100 µM
same,TGI,ACHN renal,> 100 µM
same,TGI,BT-549 breast,> 100 µM
same,TGI,CAKI-1 renal,> 100 µM
same,TGI,CCRF-CEM leukemia,> 84.2 µM
same,TGI,COLO 205 colon,> 93.8 µM
same,TGI,DU-145 prostate,> 93.5 µM
same,TGI,EKVX NSCLC,> 97.4 µM
same,TGI,HCC-2998 colon,53.1 µM
same,TGI,HCT-116 colon,> 100 µM
same,TGI,HCT-15 colon,> 100 µM
same,TGI,HL-60(TB) leukemia,> 52.3 µM
same,TGI,HOP-62 NSCLC,97.6 µM
same,TGI,HOP-92 NSCLC,> 100 µM
same,TGI,HS 578T breast,> 77.3 µM
same,TGI,HT29 colon,> 91 µM
same,TGI,IGROV1 ovarian,> 100 µM
same,TGI,K-562 leukemia,40.2 µM
same,TGI,KM12 colon,> 100 µM
same,TGI,LOX IMVI melanoma,> 100 µM
same,TGI,M14 melanoma,> 100 µM
same,TGI,MALME-3M melanoma,> 100 µM
same,TGI,MCF7 breast,> 100 µM
same,TGI,MDA-MB-231 breast,> 100 µM
same,TGI,MDA-MB-435,9.13 µM
same,TGI,MDA-N,11.7 µM
same,TGI,MOLT-4 leukemia,> 87.9 µM
same,TGI,NCI-H226 lung,> 100 µM
same,TGI,NCI-H23 lung,> 100 µM
same,TGI,NCI-H460 lung,> 100 µM
same,TGI,NCI-H522 lung,39.7 µM
same,TGI,NCI/ADR-RES ovarian,> 74.1 µM
same,TGI,OVCAR-3 ovarian,> 100 µM
same,TGI,OVCAR-4 ovarian,> 100 µM
same,TGI,OVCAR-5 ovarian,> 100 µM
same,TGI,OVCAR-8 ovarian,> 100 µM
same,TGI,PC-3 prostate,> 100 µM
same,TGI,RPMI-8226 leukemia,> 87.9 µM
same,TGI,RXF 393 renal,44.8 µM
same,TGI,SF-268 CNS,> 100 µM
same,TGI,SF-295 CNS,> 100 µM
same,TGI,SF-539 CNS,43.8 µM
same,TGI,SK-MEL-2 melanoma,> 83.8 µM
same,TGI,SK-MEL-28 melanoma,> 100 µM
same,TGI,SK-MEL-5 melanoma,> 100 µM
same,TGI,SK-OV-3 ovarian,> 75.8 µM
same,TGI,SN12C renal,> 100 µM
same,TGI,SNB-19 CNS,> 100 µM
same,TGI,SNB-75 CNS,59.2 µM
same,TGI,SR leukemia,> 100 µM
same,TGI,SW-620 colon,> 100 µM
same,TGI,T-47D breast,> 100 µM
same,TGI,TK-10 renal,> 100 µM
same,TGI,U251 CNS,> 100 µM
same,TGI,UACC-257 melanoma,> 96.4 µM
same,TGI,UACC-62 melanoma,> 100 µM
same,TGI,UO-31 renal,> 91.5 µM
O=C1Nc2ccc(Br)cc2C1=Nc1ccc2c(c1)OCO2,TGI,786-0 renal,48.2 µM
same,TGI,A498 renal,97.3 µM
same,TGI,A549 NSCLC,> 100 µM
same,TGI,ACHN renal,68.7 µM
same,TGI,BT-549 breast,50.5 µM
same,TGI,CAKI-1 renal,64.5 µM
same,TGI,CCRF-CEM leukemia,55.3 µM
same,TGI,COLO 205 colon,31.9 µM
same,TGI,DU-145 prostate,> 100 µM
same,TGI,EKVX NSCLC,74.8 µM
same,TGI,HCC-2998 colon,30 µM
same,TGI,HCT-116 colon,33.6 µM
same,TGI,HCT-15 colon,53.4 µM
same,TGI,HL-60(TB) leukemia,43.6 µM
same,TGI,HOP-62 NSCLC,44.5 µM
same,TGI,HOP-92 NSCLC,> 100 µM
same,TGI,HS 578T breast,98.7 µM
same,TGI,HT29 colon,39.1 µM
same,TGI,IGROV1 ovarian,> 100 µM
same,TGI,K-562 leukemia,61.6 µM
same,TGI,KM12 colon,44.5 µM
same,TGI,LOX IMVI melanoma,64.9 µM
same,TGI,M14 melanoma,40.6 µM
same,TGI,MALME-3M melanoma,35.6 µM
same,TGI,MCF7 breast,37 µM
same,TGI,MDA-MB-231 breast,39.2 µM
same,TGI,MDA-MB-435,22.4 µM
same,TGI,MDA-N,30.4 µM
same,TGI,MOLT-4 leukemia,50.2 µM
same,TGI,NCI-H226 lung,60.8 µM
same,TGI,NCI-H23 lung,> 100 µM
same,TGI,NCI-H460 lung,67.9 µM
same,TGI,NCI-H522 lung,43 µM
same,TGI,NCI/ADR-RES ovarian,85.8 µM
same,TGI,OVCAR-3 ovarian,61.8 µM
same,TGI,OVCAR-4 ovarian,17.1 µM
same,TGI,OVCAR-5 ovarian,51.9 µM
same,TGI,OVCAR-8 ovarian,> 100 µM
same,TGI,PC-3 prostate,33.6 µM
same,TGI,RPMI-8226 leukemia,63.2 µM
same,TGI,RXF 393 renal,38.9 µM
same,TGI,SF-268 CNS,> 100 µM
same,TGI,SF-295 CNS,78.7 µM
same,TGI,SF-539 CNS,37.3 µM
same,TGI,SK-MEL-2 melanoma,35.3 µM
same,TGI,SK-MEL-28 melanoma,> 100 µM
same,TGI,SK-MEL-5 melanoma,30 µM
same,TGI,SK-OV-3 ovarian,> 100 µM
same,TGI,SN12C renal,34.4 µM
same,TGI,SNB-19 CNS,> 100 µM
same,TGI,SNB-75 CNS,98.4 µM
same,TGI,SR leukemia,73.5 µM
same,TGI,SW-620 colon,74.1 µM
same,TGI,T-47D breast,> 100 µM
same,TGI,TK-10 renal,59.6 µM
same,TGI,U251 CNS,25.3 µM
same,TGI,UACC-257 melanoma,34.8 µM
same,TGI,UACC-62 melanoma,29.1 µM
same,TGI,UO-31 renal,44.1 µM
